The source of these data is US20240409585A1, “MACROCYCLIC IMMUNOMODULATORS” (priority 2021, published 2024).

Bridge positions count the residues as written; N and C are the ends. Square brackets hold non-standard residues; d marks the D form. Peptide text beside a SMILES is read from it. * marks the point of attachment. ξ: configuration not given here. Phe(4-COOH) = N[C@@H](Cc1ccc(C(=O)O)cc1)C(=O)O; Phe(4-CH2NH2) = NCc1ccc(C[C@H](N)C(=O)O)cc1; Bip = N[C@@H](Cc1ccc(-c2ccccc2)cc1)C(=O)O; Phe(3-CN) = N#Cc1cccc(C[C@H](N)C(=O)O)c1; Phe(3-Me) = Cc1cccc(C[C@H](N)C(=O)O)c1; Phe(4-F) = N[C@@H](Cc1ccc(F)cc1)C(=O)O; Bta = N[C@@H](Cc1csc2ccccc12)C(=O)O; Val(3-OH) = CC(C)(O)[C@H](N)C(=O)O; aIle = CC[C@@H](C)[C@H](N)C(=O)O; 4Pal = N[C@@H](Cc1ccncc1)C(=O)O; Cha = N[C@@H](CC1CCCCC1)C(=O)O; Ile(3ξ) = CCC(C)[C@H](N)C(=O)O; Thr(3ξ) = CC(O)[C@H](N)C(=O)O; NMeNle = CCCC[C@H](NC)C(=O)O; Carboxymethyl = O=C(O)C*; NMeA = CN[C@@H](C)C(=O)O; Orn = NCCC[C@H](N)C(=O)O; Dab = NCC[C@H](N)C(=O)O; Dap = NC[C@H](N)C(=O)O; ξV = CC(C)C(N)C(=O)O

The target of the experiment is T1, PE-labeled human PD-L1-Ig binding to Jurkat cell line over-expressing human PD-1 (Jurkat-PD-1) (Homo sapiens, UniProt Q15116).
T1 construct: expressed in transfected cells; host or cells: Jurkat
T1 sequence (Q15116 25-288): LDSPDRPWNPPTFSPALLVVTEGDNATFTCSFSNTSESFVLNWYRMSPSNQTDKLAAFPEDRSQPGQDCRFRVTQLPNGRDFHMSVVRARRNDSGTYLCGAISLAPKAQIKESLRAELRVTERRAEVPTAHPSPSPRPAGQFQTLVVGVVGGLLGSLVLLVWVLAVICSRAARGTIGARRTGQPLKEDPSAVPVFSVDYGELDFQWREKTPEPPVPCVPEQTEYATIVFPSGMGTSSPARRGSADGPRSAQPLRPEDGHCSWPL
As to the kind of experiment: Jurkat-PD-1 Cell Binding High-Content Screening Assay (CBA): Method 1. Particulars: Jurkat-hPD-1 cells, PE-labeled PD-L1-Ig 20 nM final; read-out: Jurkat HPDL1 PD1 IC50 (uM) (Method 1).

As to `CC(C)C[C@@H]1NC(=O)[C@H](CCCNC(=N)N)NC(=O)[C@@H](CC(C)C)NC(=O)[C@H](C)N(C)C(=O)[C@H](CCCNC(=N)N)NC(=O)[C@H](Cc2ccc(-c3ccccc3)cc2)NC(=O)[C@H](C(C)C)NC(=O)[C@H](Cc2c[nH]c3ccccc23)NC(=O)[C@H](CC(=O)O)NC(=O)[C@H](Cc2ccc(O)cc2)NC(=O)[C@H](Cc2ccccc2)NC(=O)CSC[C@@H](C(=O)NCC(N)=O)NC(=O)[C@H](CO)NC(=O)[C@H](C(C)C)NC1=O` [Compound 1017] ({CH2CO}-FYDWV[Bip]R[NMeA][dL]RLVSCG-NH2; thioether N-14), the IC50 was 0.04 µM. The figure for `CC(C)C[C@@H]1NC(=O)[C@H](CCCN)NC(=O)[C@@H](CC(C)C)NC(=O)[C@H](C)N(C)C(=O)[C@H](CCCN)NC(=O)[C@H](Cc2ccc(-c3ccccc3)cc2)NC(=O)[C@H](C(C)C)NC(=O)[C@H](Cc2c[nH]c3ccccc23)NC(=O)[C@H](CC(=O)O)NC(=O)[C@H](Cc2ccc(O)cc2)NC(=O)[C@H](CC(N)=O)NC(=O)CSC[C@@H](C(=O)N[C@@H](C)C(N)=O)NC(=O)[C@H](CO)NC(=O)[C@H](C(C)C)NC1=O` [Compound 1251] ({CH2CO}-NYDWV[Bip][Orn][NMeA][dL][Orn]LVSCA-NH2; thioether N-14) is 0.04 µM. Turning to `CC(C)C[C@@H]1NC(=O)[C@H](CCN)NC(=O)[C@@H](CC(C)C)NC(=O)[C@H](C)N(C)C(=O)[C@H](C(C)C)NC(=O)[C@H](Cc2ccc(-c3ccccc3)cc2)NC(=O)[C@H](C(C)C)NC(=O)[C@H](Cc2c[nH]c3ccccc23)NC(=O)[C@H](CC(=O)O)NC(=O)[C@H](Cc2ccc(OCC(=O)O)cc2)NC(=O)[C@H](Cc2ccncc2)NC(=O)CSC[C@@H](C(=O)N[C@@H](C)C(N)=O)NC(=O)[C@H]([C@@H](C)O)NC(=O)[C@H](C(C)C)NC1=O` [Compound 1565] ({CH2CO}-[4Pal]Y(Carboxymethyl)DWV[Bip]V[NMeA][dL][Dab]LVTCA-NH2; thioether N-14), the half-inhibitory concentration (IC50) was determined as 0.01 µM.

Turning to `CCCC[C@H]1C(=O)N[C@@H](Cc2ccc(C(=O)O)cc2)C(=O)N[C@@H](CC(=O)O)C(=O)N[C@@H](Cc2cccc(C)c2)C(=O)N[C@@H](Cc2ccc(C(=O)O)cc2)C(=O)N[C@@H](Cc2ccc(-c3ccccc3)cc2)C(=O)N[C@@H](Cc2ccc(C(=O)O)cc2)C(=O)N(C)[C@@H](C)C(=O)N[C@H](CC(C)C)C(=O)N[C@@H](CCN)C(=O)N[C@@H](CC2CCCCC2)C(=O)N[C@@H](C(C)(C)O)C(=O)N[C@@H](CO)C(=O)N[C@H](C(=O)N[C@@H](CCN)C(N)=O)CSCC(=O)N1C` [Compound 2205] ({CH2CO}-[NMeNle][Phe(4-COOH)]D[Phe(3-Me)][Phe(4-COOH)][Bip][Phe(4-COOH)][NMeA][dL][Dab][Cha][Val(3-OH)]SC[Dab]-NH2; thioether N-14), the IC50 is 0.06 µM.

Take `CC(C)C[C@@H]1NC(=O)[C@H](CCN)NC(=O)[C@@H](CC(C)C)NC(=O)[C@H](C)N(C)C(=O)[C@H](CCCNC(=N)N)NC(=O)[C@H](Cc2ccc(-c3ccccc3)cc2)NC(=O)[C@H](C(C)C)NC(=O)[C@H](Cc2c[nH]c3ccccc23)NC(=O)[C@H](CC(=O)O)NC(=O)[C@H](Cc2cccc(C#N)c2)NC(=O)[C@H](CN)NC(=O)CSC[C@@H](C(=O)N[C@@H](C)C(N)=O)NC(=O)[C@H]([C@@H](C)O)NC(=O)[C@H](C(C)C)NC1=O` [Compound 1455] ({CH2CO}-[Dap][Phe(3-CN)]DWV[Bip]R[NMeA][dL][Dab]LVTCA-NH2; thioether N-14): the IC50 is 0.08 µM.

For the molecule `CC[C@@H](C)[C@@H]1NC(=O)[C@H](Cc2ccc(-c3ccccc3)cc2)NC(=O)[C@H](CC(C)C)NC(=O)[C@H](Cc2c[nH]c3ccccc23)NC(=O)[C@H](CC(=O)O)NC(=O)[C@H](Cc2ccc(C(=O)O)cc2)NC(=O)[C@H](Cc2ccc(OCC(=O)O)cc2)NC(=O)CSC[C@@H](C(=O)N[C@@H](CCCCN)C(N)=O)NC(=O)[C@H](Cc2cnc[nH]2)NC(=O)C(C(C)C)NC(=O)[C@H](CC(C)C)NC(=O)[C@H](CC(N)=O)NC(=O)[C@@H](CC(C)C)NC(=O)[C@H](C)N(C)C1=O` (stereo partly drawn) [Compound 2104] ({CH2CO}-Y(Carboxymethyl)[Phe(4-COOH)]DWL[Bip][aIle][NMeA][dL]NL[ξV]HCK-NH2; thioether N-14), the IC50 turned out to be 0.05 µM. On to `Cc1cccc(C[C@@H]2NC(=O)[C@H](CC(=O)O)NC(=O)[C@H](Cc3ccc(C(=O)O)cc3)NC(=O)[C@H](Cc3ccc(OCC(=O)O)cc3)NC(=O)CSC[C@@H](C(N)=O)NC(=O)[C@H](CO)NC(=O)[C@H](C(C)C)NC(=O)[C@H](CC(C)C)NC(=O)[C@H](Cc3c[nH]cn3)NC(=O)[C@@H](CC(C)C)NC(=O)[C@H](C)N(C)C(=O)[C@H](C(C)C)NC(=O)[C@H](Cc3ccc(-c4ccccc4)cc3)NC(=O)[C@H](Cc3ccc(CN)cc3)NC2=O)c1` [Compound 1876] ({CH2CO}-Y(Carboxymethyl)[Phe(4-COOH)]D[Phe(3-Me)][Phe(4-CH2NH2)][Bip]V[NMeA][dL]HLVSC-NH2; thioether N-14), for which the IC50 is 0.34 µM. For the molecule `CC(C)C[C@@H]1NC(=O)[C@H](Cc2c[nH]c3ccccc23)NC(=O)[C@H](CC(=O)O)NC(=O)[C@H](Cc2ccc(O)cc2)NC(=O)[C@H](Cc2ccncc2)NC(=O)CSC[C@@H](C(=O)NCC(N)=O)NC(=O)[C@H](CO)NC(=O)[C@H](C(C)C)NC(=O)[C@H](CC(C)C)NC(=O)[C@H](CC(N)=O)NC(=O)[C@@H](C)NC(=O)[C@H](C)N(C)C(=O)[C@H](C(C)C)NC(=O)[C@H](Cc2ccc(-c3ccccc3)cc2)NC1=O` [Compound 1722] ({CH2CO}-[4Pal]YDWL[Bip]V[NMeA][dA]NLVSCG-NH2; thioether N-14), the IC50 was 0.01 µM. As to `CC(C)C[C@H]1NC(=O)[C@H](C)N(C)C(=O)[C@H](CCC(=O)O)NC(=O)[C@H](Cc2ccc(-c3ccccc3)cc2)NC(=O)[C@H](C(C)C)NC(=O)[C@H](Cc2c[nH]c3ccccc23)NC(=O)[C@H](CC(=O)O)NC(=O)[C@H](Cc2ccc(OCC(=O)O)cc2)NC(=O)[C@H](CC(N)=O)NC(=O)CSC[C@@H](C(=O)NCC(N)=O)NC(=O)[C@H](C(C)O)NC(=O)[C@H](C(C)C)NC(=O)[C@H](CC2CCCCC2)NC(=O)[C@H](CCN)NC1=O` (stereo partly drawn) [Compound 2085] ({CH2CO}-NY(Carboxymethyl)DWV[Bip]E[NMeA][dL][Dab][Cha]V[Thr(3ξ)]CG-NH2; thioether N-14), the IC50 worked out at 0.01 µM.

For `Cc1cccc(C[C@@H]2NC(=O)[C@H](CC(=O)O)NC(=O)[C@H](Cc3ccc(C(=O)O)cc3)NC(=O)[C@H](Cc3ccc(F)cc3)NC(=O)CSC[C@@H](C(=O)N[C@@H](CCN)C(N)=O)NC(=O)[C@H](CCC(=O)O)NC(=O)[C@H](C(C)O)NC(=O)[C@H](CC3CCCCC3)NC(=O)[C@H](CCN)NC(=O)[C@@H](CC(C)C)NC(=O)[C@H](C)N(C)C(=O)[C@H](Cc3ccc(C(=O)O)cc3)NC(=O)[C@H](Cc3ccc(-c4ccccc4)cc3)NC(=O)[C@H](Cc3ccc(C(=O)O)cc3)NC2=O)c1` (stereo partly drawn) [Compound 2209] ({CH2CO}-[Phe(4-F)][Phe(4-COOH)]D[Phe(3-Me)][Phe(4-COOH)][Bip][Phe(4-COOH)][NMeA][dL][Dab][Cha][Thr(3ξ)]EC[Dab]-NH2; thioether N-14), the IC50 came out at 0.01 µM.

On to `CCC(C)[C@@H]1NC(=O)[C@H](Cc2ccc(-c3ccccc3)cc2)NC(=O)[C@H](C(C)C)NC(=O)[C@H](Cc2c[nH]c3ccccc23)NC(=O)[C@H](CC(N)=O)NC(=O)[C@H](Cc2ccc(OCC(=O)O)cc2)NC(=O)[C@H](Cc2ccncc2)NC(=O)CSC[C@@H](C(=O)N[C@@H](CCCCN)C(N)=O)NC(=O)[C@H](C(C)O)NC(=O)[C@H](C(C)C)NC(=O)[C@H](CC(C)C)NC(=O)[C@H](CC(N)=O)NC(=O)[C@@H](CC(C)C)NC(=O)[C@H](C)N(C)C1=O` (stereo partly drawn) [Compound 2055] ({CH2CO}-[4Pal]Y(Carboxymethyl)NWV[Bip][Ile(3ξ)][NMeA][dL]NLV[Thr(3ξ)]CK-NH2; thioether N-14), for which the IC50 was 0.95 µM. Consider `CC(C)C[C@@H]1NC(=O)[C@H](C)NC(=O)[C@@H](C)NC(=O)[C@H](C)N(C)C(=O)[C@H](CCC(=O)O)NC(=O)[C@H](Cc2ccc(-c3ccccc3)cc2)NC(=O)[C@H](CC(C)C)NC(=O)[C@H](Cc2c[nH]c3ccccc23)NC(=O)[C@H](CC(=O)O)NC(=O)[C@H](Cc2ccc(O)cc2)NC(=O)[C@H](Cc2ccccc2)NC(=O)CSC[C@@H](C(=O)N[C@@H](C)C(N)=O)NC(=O)[C@H](CO)NC(=O)[C@H](C(C)C)NC1=O` [Compound 1785] ({CH2CO}-FYDWL[Bip]E[NMeA][dA]ALVSCA-NH2; thioether N-14), for which the IC50 came out at 0.09 µM. Consider `CC(C)C[C@@H]1NC(=O)[C@H](CCCNC(=N)N)NC(=O)[C@H](Cc2csc3ccccc23)NC(=O)[C@H](C)N(C)C(=O)[C@H](CCCN)NC(=O)[C@H](Cc2ccc(-c3ccccc3)cc2)NC(=O)[C@H](C(C)C)NC(=O)[C@H](Cc2c[nH]c3ccccc23)NC(=O)[C@H](CC(=O)O)NC(=O)[C@H](Cc2ccc(O)cc2)NC(=O)[C@H](Cc2ccccc2)NC(=O)CSC[C@@H](C(=O)N[C@@H](C)C(N)=O)NC(=O)[C@H]([C@@H](C)O)NC(=O)[C@H](C(C)C)NC1=O` [Compound 1124] ({CH2CO}-FYDWV[Bip][Orn][NMeA][Bta]RLVTCA-NH2; thioether N-14), for which the IC50 is 0.69 µM. On to `CC(C)C[C@@H]1NC(=O)[C@H](CCN)NC(=O)[C@@H](CC(C)C)NC(=O)[C@H](C)N(C)C(=O)[C@H](CCCNC(=N)N)NC(=O)[C@H](Cc2ccc(-c3ccccc3)cc2)NC(=O)[C@H](C(C)C)NC(=O)[C@H](Cc2c[nH]c3ccccc23)NC(=O)[C@H](CC(=O)O)NC(=O)[C@H](Cc2ccc(OCC(=O)O)cc2)NC(=O)[C@H](Cc2cnc[nH]2)NC(=O)CSC[C@@H](C(=O)N[C@@H](C)C(N)=O)NC(=O)[C@H]([C@@H](C)O)NC(=O)[C@H](C(C)C)NC1=O` [Compound 1150] ({CH2CO}-HY(Carboxymethyl)DWV[Bip]R[NMeA][dL][Dab]LVTCA-NH2; thioether N-14), for which the IC50 was found to be 0.05 µM. Under `CC(C)C[C@@H]1NC(=O)[C@H](Cc2c[nH]c3ccccc23)NC(=O)[C@H](CC(=O)O)NC(=O)[C@H](Cc2ccc(OCC(=O)O)cc2)NC(=O)[C@H](Cc2ccncc2)NC(=O)CSC[C@@H](C(=O)N[C@@H](C)C(N)=O)NC(=O)[C@H](CO)NC(=O)[C@H](C(C)C)NC(=O)[C@H](CC(C)C)NC(=O)[C@H](CC(N)=O)NC(=O)[C@@H](C)NC(=O)[C@H](C)N(C)C(=O)[C@H](C(C)C)NC(=O)[C@H](Cc2ccc(-c3ccccc3)cc2)NC1=O` [Compound 1563] ({CH2CO}-[4Pal]Y(Carboxymethyl)DWL[Bip]V[NMeA][dA]NLVSCA-NH2; thioether N-14) stands 0.02 µM.
